Measured values as given in patent US20260034094A1, “COMPOSITIONS AND METHODS FOR INDUCING FERROPTOSIS” (Kojin Therapeutics, Inc., priority 2022, published 2026).

These compounds were tested on RKN cells (assay: RKN cell profiling assay (cell viability, CellTiter-Glo)). Conditions: 96 h, 96 h exposure, read-out: Cell Killing EC50.
Assay type: cell-based
Protocol: RKN cells were suspended in assay medium (F-12 medium supplemented with 10% FBS and penicillin/streptomycin) and seeded at 1,000 cells per well (30 μL total volume) in opaque white 384-well plates (Corning). Cells were allowed to adhere for 24 h at 37° C. (95% humidity, 5% CO2) and then exposed to compounds disclosed herein for 72 h, or in the present case, 96 h. DMSO stock solutions of compounds were added to cells using a D300e Digital Dispenser (Tecan). The final DMSO concentration in each well was normalized to 0.5% (v/v) after compound treatment. Cell viability was measured using CellTiter-Glo (Promega). After incubation for 15 min at room temperature, luminescence was measured using a PHERAstar FSX microplate reader (BMG Labtech). Ferroptosis rescue experiments were performed as described previously using cells treated with ferrostatin-1 (fer-1, 1.5 μM) when seeding assay plates. Dose-response data were analyzed to determine EC50 values with GraphPad Prism 9 software using a four-parameter logistic equation or CDD Vault (Collaborative Drug Discovery) using the Levenberg-Marquardt algorithm.

Compound | EC50 [µM]
CCCCS(=N)(=O)CC[C@H](N)C(=O)NC (some centres unmarked) [Compound 107] | ≥ 1000
N[C@@H](CC[S@@](=O)(CCCC(F)(F)F)=NP(=O)(O)O)C(=O)O [Compound 138, (S)-2-amino-4-((S)-4,4,4-trifluoro-N-phosphonobutylsulfonimidoyl)butanoic acid] | < 1000
CC(C)(C)CCS(=N)(=O)CC[C@H](N)C(=O)OC(C)(C)C (some centres unmarked) [Compound 96] | ≥ 1000

Same assay, conditions: cell viability, read-out: Cell Killing EC50

Compound | EC50 [µM]
N=S(=O)(CCC(c1ccc(Oc2ccccc2)cc1)C(F)(F)F)CC[C@H](N)C(=O)O (some centres unmarked) [Compound 316] | < 1000
N=S(=O)(CCC(c1ccc(-c2cccc(C(N)=O)c2)cc1)C(F)(F)F)CC[C@H](N)C(=O)O (some centres unmarked) [Compound 229] | ≥ 1000
CNC(=O)c1cccc(-c2ccc(C(CCS(=N)(=O)CC[C@H](N)C(=O)O)C(F)(F)F)cc2)c1 (some centres unmarked) [Compound 230] | ≥ 1000
Cc1ccccc1-c1ccc(C(CCS(=N)(=O)CC[C@H](N)C(=O)O)C(F)(F)F)cc1 (some centres unmarked) [Compound 265] | < 1000
N=S(=O)(CCC(CO)C(F)(F)F)CC[C@H](N)C(=O)O (some centres unmarked) [Compound 320] | < 1000
N=S(=O)(CC[C@H](N)C(=O)O)CCC(O)(c1ncc(-c2ccccc2)cn1)C(F)(F)F (some centres unmarked) [Compound 467] | < 1000
N=S(=O)(CCC(c1ccc(-c2ccccc2C(F)(F)F)cc1)C(F)(F)F)CC[C@H](N)C(=O)O (some centres unmarked) [Compound 267] | < 1000
N=S(=O)(CCC(N1CCN(c2ccc(Cl)cc2Cl)CC1)C(F)(F)F)CC[C@H](N)C(=O)O (some centres unmarked) [Compound 423] | < 1000
N=S(=O)(CCC(c1ccc(-c2ccc(Cl)cc2Cl)cc1)C(F)(F)F)CC[C@H](N)C(=O)O (some centres unmarked) [Compound 269] | < 1000
N=S(=O)(CCC(c1ccc(-c2ccc(O)cc2Cl)cc1)C(F)(F)F)CC[C@H](N)C(=O)O (some centres unmarked) [Compound 270] | < 1000
N=S(=O)(CC[C@H](N)C(=O)O)CCC(O)(c1ccc(-c2ccc(Cl)cc2Cl)cn1)C(F)(F)F (some centres unmarked) [Compound 466] | < 1000
Cc1cc(Cl)ccc1-c1cccc(C(CCS(=N)(=O)CC[C@H](N)C(=O)O)C(F)(F)F)c1 (some centres unmarked) [Compound 283] | ≥ 1000
Cc1ccc(-c2ccc(C(CCS(=N)(=O)CC[C@H](N)C(=O)O)C(F)(F)F)cc2)c(C)c1 (some centres unmarked) [Compound 280] | < 1000
N=S(=O)(CCC(c1ccc2[nH]cnc2c1)C(F)(F)F)CC[C@H](N)C(=O)O (some centres unmarked) [Compound 399] | ≥ 1000
Cc1cccc(-c2cccc(C(CCS(=N)(=O)CC[C@H](N)C(=O)O)C(F)(F)F)c2)c1 (some centres unmarked) [Compound 286] | ≥ 1000
CC(C)(O)c1ccc(C(CCS(=N)(=O)CC[C@H](N)C(=O)O)C(F)(F)F)cc1 (some centres unmarked) [Compound 263] | ≥ 1000
N=S(=O)(CCC(c1ccc(-c2ccc(Cl)cc2Cl)cn1)C(F)(F)F)CC[C@H](N)C(=O)O (some centres unmarked) [Compound 317] | < 1000
N=S(=O)(CCC(c1ccc(-c2cccnc2)cc1)C(F)(F)F)CC[C@H](N)C(=O)O (some centres unmarked) [Compound 243] | ≥ 1000
N=S(=O)(CCC(c1ccc(C2=CCNCC2)cc1)C(F)(F)F)CC[C@H](N)C(=O)O (some centres unmarked) [Compound 259] | ≥ 1000
N=S(=O)(CC[C@H](N)C(=O)O)CCC(O)(c1ccc(C2CCCCC2)cn1)C(F)(F)F (some centres unmarked) [Compound 476] | < 1000
Cc1ccc(-c2ccc(C(CCS(=N)(=O)CC[C@H](N)C(=O)O)C(F)(F)F)cc2)c(Cl)c1 (some centres unmarked) [Compound 276] | < 1000
Cc1ccccc1-c1ccc(C(O)(CCS(=N)(=O)CC[C@H](N)C(=O)O)C(F)(F)F)nc1 (some centres unmarked) [Compound 471] | < 1000

Compound | EC50 [µM]
C#Cc1ccc(C(CCS(=N)(=O)CC[C@H](N)C(=O)O)C(F)(F)F)cc1 (some centres unmarked) [Compound 272] | < 1000
N=S(=O)(CCC(c1ccc(-c2cnc(C3CC3)nc2)cc1)C(F)(F)F)CC[C@H](N)C(=O)O (some centres unmarked) [Compound 252] | ≥ 1000
N=S(=O)(CCC(c1ccccc1O)C(F)(F)F)CC[C@H](N)C(=O)O (some centres unmarked) [Compound 397] | < 1000
N=S(=O)(CC[C@H](N)C(=O)O)CCC(O)(c1cnc(-c2ccc(Cl)cc2Cl)cn1)C(F)(F)F (some centres unmarked) [Compound 367] | < 1000
N=S(=O)(CCC(c1ccc(-c2ccc(Cl)cc2)cc1)C(F)(F)F)CC[C@H](N)C(=O)O (some centres unmarked) [Compound 277] | < 1000
Cc1ccccc1-c1ccc(C(O)(CCS(=N)(=O)CC[C@H](N)C(=O)O)C(F)(F)F)cc1 (some centres unmarked) [Compound 429] | < 1000
N=S(=O)(CCC(c1cccc2ccccc12)C(F)(F)F)CC[C@H](N)C(=O)O (some centres unmarked) [Compound 311] | < 1000
N=S(=O)(CCC(c1ccc(-c2ccoc2)cc1)C(F)(F)F)CC[C@H](N)C(=O)O (some centres unmarked) [Compound 258] | < 1000
N=S(=O)(CC[C@H](N)C(=O)O)CCC(O)(c1ccc(-c2ccc(Cl)cc2)cc1)C(F)(F)F (some centres unmarked) [Compound 431] | < 1000
N=S(=O)(CC[C@H](N)C(=O)O)CCC(O)(c1ncc(-c2ccc(Cl)cc2Cl)cn1)C(F)(F)F (some centres unmarked) [Compound 468] | < 1000
COc1ccccc1-c1ccc(C(CCS(=N)(=O)CC[C@H](N)C(=O)O)C(F)(F)F)cc1 (some centres unmarked) [Compound 264] | < 1000
N=S(=O)(CC[C@H](N)C(=O)O)CCC(O)([C@H]1CC[C@H](c2ccc(Cl)cc2Cl)CC1)C(F)(F)F (some centres unmarked) [Compound 340] | < 1000
Cc1cc(Cl)ccc1-c1ccc(C(O)(CCS(=N)(=O)CC[C@H](N)C(=O)O)C(F)(F)F)cc1 (some centres unmarked) [Compound 430] | < 1000
N=S(=O)(CCC(c1cccc(C#Cc2ccccc2)c1)C(F)(F)F)CC[C@H](N)C(=O)O (some centres unmarked) [Compound 273] | ≥ 1000
N=S(=O)(CCC(c1ccc(-c2ccc3cn[nH]c3c2)cc1)C(F)(F)F)CC[C@H](N)C(=O)O (some centres unmarked) [Compound 255] | ≥ 1000
N=S(=O)(CC[C@H](N)C(=O)O)CCC1(c2ccc(Oc3ccc(Cl)cc3Cl)cc2)CCC1 (some centres unmarked) [Compound 403] | ≥ 1000
N=S(=O)(CCC(c1ccc(S(=O)(=O)Cc2ccccc2)cc1)C(F)(F)F)CC[C@H](N)C(=O)O (some centres unmarked) [Compound 291] | ≥ 1000
N=S(=O)(CC[C@H](N)C(=O)O)CCC(O)(c1ccc2ccccc2n1)C(F)(F)F (some centres unmarked) [Compound 373] | < 1000
Cc1nc(Cl)ccc1-c1ccc(C(CCS(=N)(=O)CC[C@H](N)C(=O)O)C(F)(F)F)cc1 (some centres unmarked) [Compound 248] | < 1000
N=S(=O)(CC[C@H](N)C(=O)O)CCC(O)(c1cnc(-c2ccc(Cl)cc2Cl)nc1)C(F)(F)F (some centres unmarked) [Compound 366] | < 1000
N=S(=O)(CCC(c1ccc(-c2ccccc2Cl)cc1)C(F)(F)F)CC[C@H](N)C(=O)O (single isomer, unassigned) [Compound 219] | ≥ 1000
N=S(=O)(CCC(c1ccc(-c2cn[nH]c2)cc1)C(F)(F)F)CC[C@H](N)C(=O)O (some centres unmarked) [Compound 227] | ≥ 1000

Compound | EC50 [µM]
N=S(=O)(CCC(c1ccc2[nH]nnc2c1)C(F)(F)F)CC[C@H](N)C(=O)O (some centres unmarked) [Compound 393] | ≥ 1000
N=S(=O)(CCC(c1ccc(-c2ccsc2)cc1)C(F)(F)F)CC[C@H](N)C(=O)O (some centres unmarked) [Compound 257] | < 1000
N=S(=O)(CCC(c1ccccn1)C(F)(F)F)CC[C@H](N)C(=O)O (some centres unmarked) [Compound 313] | < 1000
C=Cc1ccc(C(CCS(=N)(=O)CC[C@H](N)C(=O)O)C(F)(F)F)cc1 (some centres unmarked) [Compound 261] | < 1000
N=S(=O)(CCC(c1ccc(-c2ccc(C(F)F)cc2)cc1)C(F)(F)F)CC[C@H](N)C(=O)O (some centres unmarked) [Compound 231] | < 1000
Cc1ccc(-c2ccc(C(CCS(=N)(=O)CC[C@H](N)C(=O)O)C(F)(F)F)cc2)cn1 (some centres unmarked) [Compound 246] | ≥ 1000
Cc1cc(C(O)(CCS(=N)(=O)CC[C@H](N)C(=O)O)C(F)(F)F)ccc1-c1ccc(Cl)cc1Cl (some centres unmarked) [Compound 443] | < 1000
N=S(=O)(CCC(c1ccc(-c2ccccc2O)cc1)C(F)(F)F)CC[C@H](N)C(=O)O (some centres unmarked) [Compound 235] | < 1000
CN1CCN(c2ccc(-c3ccc(C(CCS(=N)(=O)CC[C@H](N)C(=O)O)C(F)(F)F)cc3)cn2)CC1 (some centres unmarked) [Compound 249] | ≥ 1000
Cc1ccc(-c2ccc(C(O)(CCS(=N)(=O)CC[C@H](N)C(=O)O)C(F)(F)F)cc2)c(Cl)c1 (some centres unmarked) [Compound 432] | < 1000
N=S(=O)(CCC(c1ccc(-c2ccc(Br)cc2)cc1)C(F)(F)F)CC[C@H](N)C(=O)O (some centres unmarked) [Compound 226] | < 1000
N=S(=O)(CC[C@H](N)C(=O)O)CCC(O)(c1ccc(-c2ccc(Cl)cc2Cl)cn1)C(F)(F)F (some centres unmarked) [Compound 465] | ≥ 1000
N=S(=O)(CCC(c1ccc(-c2cc[nH]n2)cc1)C(F)(F)F)CC[C@H](N)C(=O)O (some centres unmarked) [Compound 228] | ≥ 1000
N=S(=O)(CC[C@H](N)C(=O)O)CCC(O)(c1cccc(-c2ccccc2)c1)C(F)(F)F (some centres unmarked) [Compound 435] | ≥ 1000
N=S(=O)(CCC(c1cccc(-c2cccc(F)c2)c1)C(F)(F)F)CC[C@H](N)C(=O)O (some centres unmarked) [Compound 287] | ≥ 1000
N=S(=O)(CC[C@H](N)C(=O)O)CCC(O)(c1cc(-c2ccc(Cl)cc2Cl)cs1)C(F)(F)F (some centres unmarked) [Compound 337] | < 1000
Cc1ccc(-c2cccc(C(CCS(=N)(=O)CC[C@H](N)C(=O)O)C(F)(F)F)c2)cc1F (some centres unmarked) [Compound 290] | ≥ 1000
N=S(=O)(CCC(c1ccc(-c2ccc(F)cc2Cl)cc1)C(F)(F)F)CC[C@H](N)C(=O)O (some centres unmarked) [Compound 271] | < 1000
N=S(=O)(CC[C@H](N)C(=O)O)CCC(O)(c1ccc(Oc2ccc(Cl)cc2Cl)cc1)C(F)(F)F (some centres unmarked) [Compound 342] | < 1000
N=S(=O)(CCC(c1ccc(-c2ccc(F)cc2O)cc1)C(F)(F)F)CC[C@H](N)C(=O)O (some centres unmarked) [Compound 281] | < 1000
C=C(C)c1ccc(C(CCS(=N)(=O)CC[C@H](N)C(=O)O)C(F)(F)F)cc1 (some centres unmarked) [Compound 262] | < 1000
